Data as given in the supplement of paper PMC10307832.

How the values were obtained:
Assay in all cases: relative viability (nuclei count vs DMSO), 5 days (fraction); higher = more cells survive
[1] = compound: N#CC[C@H](C1CCCC1)n1cc(-c2ncnc3[nH]ccc23)cn1 [Ruxolitinib] + Nc1ncn([C@H]2C[C@H](O)[C@@H](CO)O2)c(=O)n1 [Decitabine] (partner 2 µM)
In short: (§1)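 After 5 days of treatment, lung cancer cells in 1536-well plates were fixed and stained in a single step (final 0.05% Triton X-100, 1% formaldehyde, 1 ug/ml Hoechst) and their nuclei counted on 4× images. Treatment had been applied by pin tool the day after seeding as one drug alone or as a fixed anchor-drug dose with five library-drug doses (not always all listed) in √10 steps. Relative viability is the nuclei count of treated wells divided by that of vehicle wells, and values are medians of duplicate plates.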

[2] = compound: CS(=O)(=O)c1ccc(C(=O)Nc2ccc(Cl)c(-c3ccccn3)c2)c(Cl)c1 [Vismodegib] + COc1cccc2cc(-c3nc([C@H]4CC[C@H](C(=O)O)CC4)n4ncnc(N)c34)[nH]c12 [OSI-027] (partner 0.5 µM)
In short: as §1

[3] = compound: CS(=O)(=O)c1ccc(-c2cnc(N)c(C(=O)Nc3ccccc3)n2)cc1 [VE-821] + Cc1cc(Nc2cc(N3CCN(C)CC3)nc(Sc3ccc(NC(=O)C4CC4)cc3)n2)n[nH]1 [Tozasertib] (partner 0.1 µM)
In short: as §1

[4] = compound: N#CC[C@H](C1CCCC1)n1cc(-c2ncnc3[nH]ccc23)cn1 [Ruxolitinib] + C[C@]1(O)C[C@@H](c2nc(-c3ccc4ccc(-c5ccccc5)nc4c3)c3c(N)nccn32)C1 [Linsitinib] (partner 1 µM)
In short: as §1

Row | Cell Line | relative viability ([1]; first compound 0.08 µM) | relative viability ([1]; first compound 0.253 µM) | relative viability ([1]; first compound 0.8 µM) | relative viability ([1]; first compound 2.53 µM) | relative viability ([1]; first compound 8 µM) | relative viability ([2]; first compound 0.08 µM) | relative viability ([2]; first compound 0.253 µM) | relative viability ([2]; first compound 0.8 µM) | relative viability ([2]; first compound 2.53 µM) | relative viability ([2]; first compound 8 µM) | relative viability ([3]; first compound 0.08 µM) | relative viability ([3]; first compound 0.253 µM) | relative viability ([3]; first compound 0.8 µM) | relative viability ([3]; first compound 2.53 µM) | relative viability ([3]; first compound 8 µM) | relative viability ([4]; first compound 0.08 µM) | relative viability ([4]; first compound 0.253 µM) | relative viability ([4]; first compound 0.8 µM) | relative viability ([4]; first compound 2.53 µM) | relative viability ([4]; first compound 8 µM)
1 | NCI-H1650 | 0.321 | 0.338 | 0.438 | 0.418 | 0.442 | 0.652 | 0.562 | 0.577 | 0.555 | 0.729 | 0.457 | 0.416 | 0.278 | 0.299 | 0.208 |  |  |  |  | 
2 | COR-L 105 |  | 0.57 | 0.656 | 0.659 | 0.58 | 0.683 | 0.63 | 0.771 | 0.739 | 0.658 | 0.37 | 0.373 | 0.374 | 0.284 | 0.333 | 0.95 | 0.719 | 0.912 | 0.642 | 0.758
3 | COR-L23 | 0.493 | 0.429 | 0.521 | 0.367 | 0.322 | 0.753 | 0.743 | 0.742 | 0.793 | 0.751 | 0.195 | 0.168 | 0.131 | 0.142 | 0.14 | 0.919 | 0.92 | 0.95 | 0.833 | 0.671
4 | NCI-H596 | 0.903 | 0.96 | 1.14 | 1.04 | 1.08 | 0.791 | 0.634 | 0.672 | 0.734 | 0.781 | 0.916 | 0.82 | 0.798 | 0.954 | 0.774 | 1.24 | 1.18 | 1.09 | 1.11 | 1.11
5 | NCI-H322M | 0.718 | 0.702 | 0.744 | 0.693 | 0.889 | 0.677 | 0.522 | 0.486 | 0.525 | 0.537 | 0.542 | 0.457 | 0.451 | 0.434 | 0.297 | 1.05 | 0.9 | 0.997 | 0.91 | 1.17
6 | H3255 |  | 0.568 | 0.781 | 0.535 | 0.609 | 0.58 | 0.634 | 0.701 | 0.579 | 0.522 | 0.74 | 0.777 | 0.633 | 0.639 | 0.612 | 0.464 | 0.887 | 1.17 | 0.706 | 0.86
7 | PC-14 |  | 0.282 | 0.207 | 0.153 | 0.156 | 0.748 | 0.686 | 0.797 | 0.738 | 0.836 | 0.592 | 0.585 | 0.483 | 0.531 | 0.54 |  | 0.959 | 1.04 | 0.794 | 0.69
8 | A549 | 0.215 | 0.254 | 0.322 | 0.197 | 0.28 |  |  |  |  |  |  |  |  |  |  | 0.594 | 0.576 | 0.896 | 0.558 | 0.675
9 | NCI-H2342 | 0.706 | 0.665 | 0.777 | 0.783 | 0.667 | 0.698 | 0.651 | 0.522 | 0.627 | 0.637 | 0.434 | 0.489 | 0.45 | 0.415 | 0.365 |  |  |  |  | 
